Active and inactive are the calls of the source. No cut-off for these calls is given here.
Tests used:
[1] = biological target: T1, Sphingosine 1-phosphate receptor 4 (Homo sapiens) (UniProt O95977); assay: Activation of human S1PR4 expressed in CHO cells assessed as suppression of forskolin-induced intracellular cAMP level at 1 to 10 uM measured after 15 mins by ELISA; type: functional, cell-based
T1 sequence (whole entry): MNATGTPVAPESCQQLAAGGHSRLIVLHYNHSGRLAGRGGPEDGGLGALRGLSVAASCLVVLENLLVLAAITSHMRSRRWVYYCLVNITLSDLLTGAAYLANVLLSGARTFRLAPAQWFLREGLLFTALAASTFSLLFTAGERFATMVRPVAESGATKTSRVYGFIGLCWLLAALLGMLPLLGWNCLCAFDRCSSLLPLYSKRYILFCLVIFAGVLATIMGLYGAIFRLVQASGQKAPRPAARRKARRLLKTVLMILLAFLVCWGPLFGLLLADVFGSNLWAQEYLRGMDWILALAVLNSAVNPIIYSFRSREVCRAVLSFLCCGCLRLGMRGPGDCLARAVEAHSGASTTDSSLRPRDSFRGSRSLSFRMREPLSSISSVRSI

[2] = biological target: T1, Sphingosine 1-phosphate receptor 4 (Homo sapiens); assay: Activation of human S1PR4 expressed in CHO cells assessed as ERK1/2 phosphorylation at 10 uM treated under serum-free condition post 1 day serum starvation measured after 5 mins by Western blot analysis; type: cell-based
[3] = biological target: T2, Sphingosine 1-phosphate receptor 5 (Homo sapiens, UniProt Q9H228); assay: Agonist activity at recombinant human S1PR5 expressed in CHO cell membranes assessed as [35S]GTP-gammaS binding measured after 1.5 hrs by TopCount scintillation counting method relative to S1P
T2 sequence (Q9H228 whole entry): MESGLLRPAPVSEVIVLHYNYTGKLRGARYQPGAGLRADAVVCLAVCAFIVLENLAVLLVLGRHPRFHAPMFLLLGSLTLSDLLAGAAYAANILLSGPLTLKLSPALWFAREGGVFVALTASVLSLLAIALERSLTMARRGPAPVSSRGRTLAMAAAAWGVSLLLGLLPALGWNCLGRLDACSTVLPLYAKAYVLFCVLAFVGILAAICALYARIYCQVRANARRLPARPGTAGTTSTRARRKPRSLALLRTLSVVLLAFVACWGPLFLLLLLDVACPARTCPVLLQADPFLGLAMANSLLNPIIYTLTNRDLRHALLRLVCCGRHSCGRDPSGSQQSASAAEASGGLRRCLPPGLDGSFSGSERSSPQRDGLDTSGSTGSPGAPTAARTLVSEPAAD

[4] = biological target: T3, Sphingosine 1-phosphate receptor 4 (Homo sapiens, UniProt O95977); assay: Activation of human S1PR4 expressed in CHO cells assessed as suppression of forskolin-induced intracellular cAMP level measured after 15 mins by ELISA; type: functional, cell-based
T3 sequence (O95977 whole entry): T1 sequence (whole entry)

[5] = biological target: Sphingosine 1-phosphate receptor 1 (Homo sapiens, UniProt P21453); assay: Agonist activity at recombinant human S1PR1 expressed in CHO cell membranes assessed as [35S]GTP-gammaS binding measured after 1.5 hrs by TopCount scintillation counting method
Chain of Sphingosine 1-phosphate receptor 1 (P21453 whole entry): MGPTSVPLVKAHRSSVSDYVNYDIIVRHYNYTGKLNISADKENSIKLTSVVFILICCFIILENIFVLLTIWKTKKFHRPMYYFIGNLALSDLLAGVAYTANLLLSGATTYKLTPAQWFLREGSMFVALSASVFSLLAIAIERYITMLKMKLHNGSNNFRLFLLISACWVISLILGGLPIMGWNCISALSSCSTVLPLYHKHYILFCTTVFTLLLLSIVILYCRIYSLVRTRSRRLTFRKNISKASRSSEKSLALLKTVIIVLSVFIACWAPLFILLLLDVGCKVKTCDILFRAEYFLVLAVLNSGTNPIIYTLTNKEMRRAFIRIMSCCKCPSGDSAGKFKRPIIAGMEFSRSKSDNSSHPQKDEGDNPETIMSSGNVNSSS

[6] = biological target: T2, Sphingosine 1-phosphate receptor 5; assay: Agonist activity at recombinant human S1PR5 expressed in CHO cell membranes assessed as [35S]GTP-gammaS binding measured after 1.5 hrs by TopCount scintillation counting method
[7] = biological target: T1, Sphingosine 1-phosphate receptor 4 (Homo sapiens); assay: Activation of human S1PR4 expressed in CHO cells assessed as ERK1/2 phosphorylation at 100 nM treated under serum-free condition post 1 day serum starvation measured after 5 mins by Western blot analysis; type: cell-based
[8] = biological target: T3, Sphingosine 1-phosphate receptor 4; assay: Agonist activity at recombinant human S1PR4 expressed in CHO cell membranes assessed as [35S]GTP-gammaS binding measured after 1.5 hrs by TopCount scintillation counting method
[9] = biological target: Sphingosine 1-phosphate receptor 3 (Homo sapiens, UniProt Q99500); assay: Agonist activity at recombinant human S1PR3 expressed in CHO cell membranes assessed as [35S]GTP-gammaS binding measured after 1.5 hrs by TopCount scintillation counting method
Chain of Sphingosine 1-phosphate receptor 3 (Q99500 whole entry): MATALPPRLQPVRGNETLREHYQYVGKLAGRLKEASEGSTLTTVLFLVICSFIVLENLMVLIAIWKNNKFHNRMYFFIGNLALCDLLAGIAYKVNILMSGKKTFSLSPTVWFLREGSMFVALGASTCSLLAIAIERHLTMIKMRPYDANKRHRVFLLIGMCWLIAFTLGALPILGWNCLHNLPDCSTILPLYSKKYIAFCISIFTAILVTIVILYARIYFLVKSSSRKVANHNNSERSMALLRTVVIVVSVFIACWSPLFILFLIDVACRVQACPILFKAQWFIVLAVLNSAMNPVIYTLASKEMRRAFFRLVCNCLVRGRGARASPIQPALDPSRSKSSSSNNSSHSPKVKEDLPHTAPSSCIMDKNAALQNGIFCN

[10] = biological target: Sphingosine 1-phosphate receptor 2 (Homo sapiens, UniProt O95136); assay: Agonist activity at recombinant human S1PR2 expressed in CHO cell membranes assessed as [35S]GTP-gammaS binding measured after 1.5 hrs by TopCount scintillation counting method
Chain of Sphingosine 1-phosphate receptor 2 (O95136 whole entry): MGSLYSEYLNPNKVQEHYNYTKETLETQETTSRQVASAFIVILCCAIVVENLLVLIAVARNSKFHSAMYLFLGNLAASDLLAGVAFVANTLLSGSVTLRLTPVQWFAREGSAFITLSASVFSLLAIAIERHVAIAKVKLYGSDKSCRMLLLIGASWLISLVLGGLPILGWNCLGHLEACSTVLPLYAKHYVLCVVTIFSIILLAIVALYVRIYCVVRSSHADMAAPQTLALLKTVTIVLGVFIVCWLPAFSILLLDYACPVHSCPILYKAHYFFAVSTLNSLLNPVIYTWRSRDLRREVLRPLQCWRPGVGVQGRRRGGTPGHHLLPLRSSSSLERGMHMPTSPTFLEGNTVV

O=C(O)CCCNCc1cc2cccc(-c3ccc4ccccc4c3)c2s1
Activity [1]: Active
Activity [2]: Active
Efficacy [3]: 24%
EC50 [4]: 154 nM
EC50 [5]: > 100000 nM
EC50 [6]: 370 nM
Activity [7]: Active
EC50 [8]: 200 nM
EC50 [9]: > 100000 nM
EC50 [10]: > 100000 nM

Reference: ChEMBL document CHEMBL3875189, “A benzo[b]thiophene-based selective type 4 S1P receptor agonist” (Bioorg Med Chem Lett, 2017)
